In one assay the test system is SK-BR-3 cells. Briefly: Measurement of cell growth inhibition (crystal violet staining method). The class given is cell-based. The following applies: Homo sapiens; breast cancer SK-BR-3 cells, 72 hr culture with test substance.
The target in assay [1] is human HSP90 alpha protein (HSP90 N-terminal protein, amino acids 2-236) (Homo sapiens (Human), UniProt P07900). Put plainly: Measurement of HSP90-binding activity (AlphaScreen competitive assay, biotin-labeled geldanamycin). The following applies: concentration inhibiting binding of biotin-labeled geldanamycin (40 nM) to purified HSP90 to 50% of control; read-out: HSP-binding activity IC50.

Take `Cc1cn(-c2ccc(C(N)=O)c(NCCCCO)c2)c2nccc(-c3cnc4ccccc4c3)c12` [Example 55, 2-(4-Hydroxybutylamino)-4-{3-methyl-4-(quinolin-3-yl)-1H-pyrrolo[2,3-b]pyridin-1-yl}benzamide]: the figures for the IC50 (with SK-BR-3 cells; in assay [1]) were 0.92 µM and 2.81 µM, respectively.
The like results for `CC(C)c1nn(-c2ccc(C(N)=O)c(N[C@H]3CC[C@H](O)CC3)c2)c2nccc(-c3cccnc3)c12` [Example 7, 2-(Trans-4-hydroxycyclohexylamino)-4-{3-isopropyl-4-(pyridin-3-yl)-1H-pyrazolo[3,4-b]pyridin-1-yl}benzamide] were, in that order, 0.23 µM and 0.34 µM.
As to `CCCc1cc(C(N)=O)ccc1-n1nc(C(F)(F)F)c2c(-n3cnc(-c4cnn(C)c4)c3)ccnc21` [Example 156, 4-{4-(4-(1-Methyl-1H-pyrazol-4-yl)-1H-imidazol-1-yl)-3-(trifluoromethyl)-1H-pyrazolo[3,4-b]pyridin-1-yl}-3-propylbenzamide], the values for the IC50 (with SK-BR-3 cells; in assay [1]) were 0.04 µM and 0.07 µM, respectively.
As to `CC(C)c1nn(-c2ccc(C(N)=O)c(N(O)C3CCCCC3)c2)c2nccc(-n3cnc(-c4cnn(C)c4)c3)c12` [Example 89, 2-(Hydroxycyclohexylamino)-4-{3-isopropyl-4-(4-(1-methyl-1H-pyrazol-4-yl)-1H-imidazol-1-yl)-1H-pyrazolo[3,4-b]pyridin-1-yl}benzamide], the IC50 (commonly the midpoint of a concentration-inhibition curve) in the assay with SK-BR-3 cells turned out to be 0.01 µM; in assay [1], 0.07 µM.
